Assay results published in ChEMBL document CHEMBL1135103, “Design and synthesis of a piperazinylalkylisoxazole library for subtype selective dopamine receptor ligands” (Bioorg Med Chem Lett, 2002).

Assays:
Assay in all cases: biochemical
[1] = molecular target: D(2) dopamine receptor (Homo sapiens, UniProt P14416)
Description: Displacement of the radioligand [3H]spiperone from the cloned human Dopamine receptor D2 long expressed in CHO cells

[2] = molecular target: D(3) dopamine receptor (Homo sapiens, UniProt P35462)
Description: Displacement of the radioligand [3H]YM-09151-2 from cloned human Dopamine receptor D3 expressed in CHO cells

[3] = molecular target: T1, D(4) dopamine receptor (Homo sapiens, UniProt P21917)
T1 sequence (P21917 whole entry): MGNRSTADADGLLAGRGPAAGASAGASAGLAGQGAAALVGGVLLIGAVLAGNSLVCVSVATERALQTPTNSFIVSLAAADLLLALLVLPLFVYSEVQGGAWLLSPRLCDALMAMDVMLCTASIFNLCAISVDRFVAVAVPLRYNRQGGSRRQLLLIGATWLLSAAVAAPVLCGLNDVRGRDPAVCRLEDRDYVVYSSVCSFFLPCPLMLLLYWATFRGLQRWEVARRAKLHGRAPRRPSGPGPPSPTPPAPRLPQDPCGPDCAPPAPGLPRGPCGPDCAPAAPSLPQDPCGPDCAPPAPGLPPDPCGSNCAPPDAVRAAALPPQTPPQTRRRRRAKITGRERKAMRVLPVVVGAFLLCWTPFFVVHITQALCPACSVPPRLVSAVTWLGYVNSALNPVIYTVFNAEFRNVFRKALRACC
Description: Displacement of the radioligand [3H]spiperone from the cloned human dopamine receptor D4 expressed in CHO cells

D(2) dopamine receptor, sequence (P14416 whole entry): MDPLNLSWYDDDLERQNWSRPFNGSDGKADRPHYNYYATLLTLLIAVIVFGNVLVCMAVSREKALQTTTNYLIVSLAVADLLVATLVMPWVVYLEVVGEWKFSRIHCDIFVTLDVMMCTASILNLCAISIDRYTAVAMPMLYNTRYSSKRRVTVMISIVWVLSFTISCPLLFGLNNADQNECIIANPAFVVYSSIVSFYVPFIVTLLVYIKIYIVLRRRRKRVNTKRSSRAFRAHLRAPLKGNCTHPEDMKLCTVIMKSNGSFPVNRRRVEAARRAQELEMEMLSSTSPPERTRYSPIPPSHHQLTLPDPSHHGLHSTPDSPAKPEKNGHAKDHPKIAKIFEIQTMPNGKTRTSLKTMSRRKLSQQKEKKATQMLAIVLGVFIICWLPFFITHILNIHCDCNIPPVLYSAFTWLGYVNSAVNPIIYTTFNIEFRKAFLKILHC
D(3) dopamine receptor, sequence (P35462 whole entry): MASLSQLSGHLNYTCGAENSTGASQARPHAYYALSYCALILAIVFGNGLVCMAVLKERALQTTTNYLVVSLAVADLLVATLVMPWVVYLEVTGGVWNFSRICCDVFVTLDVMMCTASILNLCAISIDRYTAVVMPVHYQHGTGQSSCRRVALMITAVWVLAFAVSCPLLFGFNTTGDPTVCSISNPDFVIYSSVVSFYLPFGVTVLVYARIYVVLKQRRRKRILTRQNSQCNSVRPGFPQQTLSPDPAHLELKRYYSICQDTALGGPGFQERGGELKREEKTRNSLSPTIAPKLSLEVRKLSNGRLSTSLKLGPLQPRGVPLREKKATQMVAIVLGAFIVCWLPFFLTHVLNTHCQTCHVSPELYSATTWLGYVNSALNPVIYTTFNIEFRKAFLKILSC

Ki [1] [nM]	Ki [2] [nM]	Ki [3] [nM]	SMILES
95	19	51	CCOc1ccccc1N1CCN(CCCCc2cc(-c3cccc([N+](=O)[O-])c3)no2)CC1
3370	18	541	c1ccc(-c2cc(CCCCN3CCN(c4ccccc4)CC3)on2)cc1
119	2.6	28	CCOc1ccccc1N1CCN(CCCCc2cc(-c3ccc(OC)c(OC)c3)no2)CC1
1470	60	1700	O=[N+]([O-])c1cccc(-c2cc(CCCCN3CCN(c4ccccc4)CC3)on2)c1
2530	12	96	Fc1ccc(-c2cc(CCCCN3CCN(c4ccccc4)CC3)on2)cc1
964	15	88	COc1ccccc1N1CCN(CCCCc2cc(/C=C/c3ccccc3)no2)CC1
1460	30	1350	Fc1ccc(-c2cc(CCCCN3CCN(C(c4ccccc4)c4ccccc4)CC3)on2)cc1
418	5.2	257	COc1ccc(-c2cc(CCCCN3CCN(c4ccccc4OC)CC3)on2)cc1OC
295	6	50	COc1ccccc1N1CCN(CCCCc2cc(-c3cccc([N+](=O)[O-])c3)no2)CC1
486	15	2240	c1ccc(-c2cc(CCCCN3CCN(C(c4ccccc4)c4ccccc4)CC3)on2)cc1
1400	38	413	COc1ccc(-c2cc(CCCCN3CCN(c4ccccc4C)CC3)on2)cc1OC
4140	15	117	c1ccc(N2CCN(CCCCc3cc(-c4cccs4)no3)CC2)cc1
726	4.7	21	COc1ccccc1N1CCN(CCCCc2cc(-c3cccs3)no2)CC1
2620	20	2440	COc1ccc(-c2cc(CCCCN3CCN(C(c4ccccc4)c4ccccc4)CC3)on2)cc1OC
2200	16	76	COc1ccc(-c2cc(CCCCN3CCN(c4ccccc4)CC3)on2)c(OC)c1
341	9	34	CCOc1ccccc1N1CCN(CCCCc2cc(-c3ccccc3)no2)CC1
620	52	2150	c1ccc(C(c2ccccc2)N2CCN(CCCCc3cc(-c4cccs4)no3)CC2)cc1
491	40	603	C(=C\c1cc(CCCCN2CCN(C(c3ccccc3)c3ccccc3)CC2)on1)/c1ccccc1
9720	27	346	C(=C\c1cc(CCCCN2CCN(c3ccccc3)CC2)on1)/c1ccccc1
440	6.5	34	COc1ccc(-c2cc(CCCCN3CCN(c4ccccc4OC)CC3)on2)c(OC)c1
321	23	33	COc1ccccc1N1CCN(CCCCc2cc(-c3ccc(F)cc3)no2)CC1
2110	163	465	Cc1ccccc1N1CCN(CCCCc2cc(-c3cccs3)no2)CC1
1730	9.5	198	COc1ccccc1N1CCN(CCCCc2cc(-c3ccccc3)no2)CC1
3830	16	1120	COc1ccc(-c2cc(CCCCN3CCN(C(c4ccccc4)c4ccccc4)CC3)on2)c(OC)c1
1520	19	2310	O=[N+]([O-])c1cccc(-c2cc(CCCCN3CCN(C(c4ccccc4)c4ccccc4)CC3)on2)c1
585	10	58	Fc1ccccc1N1CCN(CCCCc2cc(/C=C/c3ccccc3)no2)CC1
5150	20	233	COc1ccc(-c2cc(CCCCN3CCN(c4ccccc4F)CC3)on2)cc1OC
3390	24	774	COc1ccc(-c2cc(CCCCN3CCN(c4ccccc4)CC3)on2)cc1OC
6510	292	683	Cc1ccccc1N1CCN(CCCCc2cc(-c3ccccc3)no2)CC1

SMILES	Ki [1] [nM]	Ki [2] [nM]	Ki [3] [nM]
CCOc1ccccc1N1CCN(CCCCc2cc(-c3cccs3)no2)CC1	194	3.9	12
